Experimental data published in US20100152244A1, “SELF-EMULSIFYING FORMULATION OF TIPRANAVIR FOR ORAL ADMINISTRATION” (BOEHRINGER INGELHEIM INTERNATIONAL GMBH, priority 2008, published 2010).

Test: lipophilicity (Log P)
Assay type: physicochemical
Excerpt: One possible reason for the self emulsifying behavior of the Capmul-free formulation is that tipranavir which is a highly lipophilic compound (Log P=6) once dissolved serves as a lipid core in this pre-concentrated microemulsion system. However, this rationale is only a theory and it was certainly not available to serve as guidance and motivation to us when we set about to solve the instability problem posed by the Capmul-containing formulation.

logP: 6
SMILES: CCC[C@@]1(CCc2ccccc2)CC(O)=C([C@H](CC)c2cccc(NS(=O)(=O)c3ccc(C(F)(F)F)cn3)c2)C(=O)O1 [tipranavir, N-[3-[(1R)-1-[(6R)-5,6-dihydro-4-hydroxy-2-oxo-6-(2-phenylethyl)-6-propyl-2H-pyran-3-yl]propyl]phenyl]-5-(trifluoromethyl)-2-pyridinesulfonamide]
